Several values for one entry are separate records, joined by “and”; a condition that tells them apart may be missing. Identical values can stand only once. Entries after “also recorded” stand apart in the source; their conditions may differ. Like-named read-outs stand apart in the source and are kept apart here.
Assays:
HSV-2 (333 strain) = assay: In vivo test of IPdR in mice implanted with HSV-2 (333 strain), survival (Example 4); set-up: species or system Swiss Webster Balb/C mice; conditions: 100 mg/kg twice daily for 2.5 days; for DAYS--SURVIVAL: deaths: 5 mice; for long term survivors (>30 days): out of 5 mice
Protocol: The substituted pyrimidinone of Example 3, 1-(2-deoxy)-β-D-ribofuranosyl)-5-iodo-2-pyrimidinone (IPdR) was tested in vivo. Three groups of five Swiss Webster Balb/C mice weighing from 19 to 23 grams were implanted with HSV-2 (333 strain) with a virus load of 5×10^5 plaque forming units.
Drug administration began one day following virus implant. The IPdR was administered subcutaneously to a first group of mice and intraperitoneally to a second group of mice. The third group of mice which performed as controls were not given any IPdR. The dosage of IPdR was at the rate of 100 mg/kg twice daily for 2.5 days for a total of 5 doses.

HSV-2 (strain 333) [1] = assay: Antiviral activity, HSV-2 plaque reduction (Example 8 Part A); type: cell-based
Protocol: The effects of 1-(2-Deoxy-β-D-ribofuranosyl)-5-iodo-2-pyrimidinone (IPdR) of Example 3 were compared with 1-(2-Deoxy-β-D-ribofuranosyl)-5-fluoro-2-pyrimidinone (FPdR) on HSV-2 (strain 333) in […]. Twenty four well plates (sterile) were plated with 10^6 Vero cells/well the day before infecting. 250 PFU of HSV-2 were used in each well. The test compounds, IPdR and FPdR, were added at zero times of post infection and the cultures incubated at 37° C. for 48 hours. At the end of the incubation period the media was removed from Vero cells. Plates were strained with 0.8% crystal violet in 50% ethanol for 15 minutes. The plaque was counted.

[2] = Cytotoxicity / cell proliferation in KB cells (Example 8 Part B); type: cell-based, human; conditions: human, kb cells, 72 hour exposure
Protocol: (§1) To compare the toxicity of FPdR and IPdR human nasopharyngeal carcinoma KB cells obtained from the American Type Culture Collection were maintained as a monolayer in RPMI 1640 supplemented with 5% fetal bovine serum, 10 mM HEPES buffer (pH 7.4) and karamycin (100 μg/ml). Cells were maintained at 37° C. in a humidified atmosphere of 5% CO2 in air. Cell numbers were determined with an electronic particle counter (Particle Data, Inc., Elmhurst, Ill.).
(§2) For determination of drug effect on cell proliferation, cells were harvested from rapidly proliferting cultures by treatment with pancreation. Cell number was determined and plated in 24 well (6 mm well diameter) plates at a concentratin of 5×10^3 cells/ml. Drug exposures were initiated by a complete change of medium after overnight incubation. Following a 72 hour drug exposure […]. of thiazolyl blue was added and incubated for a further 4 hour period. The media from the plates was aspirated completely and […] DMSO was added to each well. The plates were placed on a shaker for 5 minutes and the blue solution transferred to 96 well plates and read at 540 nm with a scanning multiwell spectrophotometer (Biotek Instruments, Inc. Burlington, Vt.).

[3] = tested on: human nasopharyngeal carcinoma KB cells; assay: as above; type: cell-based
Protocol: as §1, §2

HSV-2 (Strain 333) [4] = assay: Antiviral activity in HSV-2 infected mice by various routes (Example 9); type: in vivo, Swiss-Webster female mice; conditions: for % ILS: excluding 45 day survivors
Protocol: The drugs were administered once a day for five days or twice daily (12 hour intervals) for 2.5 days beginning 24 hours postinfection. Mean body weight determinations of drug treated and control animals were made during the treatment period as an indicator of sublethal toxicity. Deaths were recorded through day 45.

HSV-1 (KOS) = assay: Antiherpes activity, HSV-1 (KOS) (Example 10); type: cell-based; conditions: Human alphaherpesvirus 1; 100 μM; read-out: plaque-forming units as % of control
Protocol: (§3) IPdR and 5-bromo-2-pyrimidinone-2-deoxyribonucleoside (BrPdR) were tested for antiherpes activity according to procedures described by Cheng, Y.-C., et al. Antimicrob. Agents Chemother (1976) 10, 119.

HSV-1 (CLl0l) = assay: Antiherpes activity, HSV-1 (CLl0l) (Example 10); type: cell-based; conditions: Human alphaherpesvirus 1; 100 μM; read-out: plaque-forming units as % of control
Protocol: as §3

HSV-2 (333) = assay: Antiherpes activity, HSV-2 (333) (Example 10); type: cell-based; conditions: Human alphaherpesvirus 2; 100 μM; read-out: plaque-forming units as % of control
Protocol: as §3

[5] = tested on: ACG (S1), acyclovir resistant strain of HSV1; assay: Antiherpes activity, acyclovir resistant strain of HSV1 (S1) (Example 10); type: cell-based, HSV-1
Protocol: as §3

[6] = tested on: ACG (Tr7), acyclovir resistant strain of HSV1; assay: Antiherpes activity, acyclovir resistant strain of HSV1 (Tr7) (Example 10); type: cell-based, HSV-1; conditions: Human alphaherpesvirus 1, read-out: plaque-forming units as % of control
Protocol: as §3

[7] = tested on: BVdU resistant strain of HSV-1; assay: Antiherpes activity, BVdU resistant strain (Example 10); type: cell-based; conditions: Human alphaherpesvirus 1, read-out: plaque-forming units as % of control
Protocol: as §3

PFA-resistant strains = assay: Antiherpes activity, PFA-resistant strain (Example 10); type: cell-based
Protocol: as §3

[8] = tested on: HSV-1 and HSV-2 strains (herpes virus group); assay: Antiherpes activity, overall statement; type: cell-based
Protocol: as §3

[9] = tested on: virus-specific thymadine kinase; assay: Binding to the virus-specific thymidine kinase (Example 10); conditions: compared with BrPdR
[10] = tested on: acyclovir (ACG) and BVdU resistant strains of HSV-1; assay: Antiherpes activity against acyclovir (ACG) and BVdU resistant strains of HSV-1, overall statement; type: cell-based
Protocol: as §3

[11] = 100 mg/kg oral, 2 × 21/2, 72 hours after implant
[12] = 100 mg/kg oral, 2 × 21/2, innoculation dose 1 × 10^6 PFU

O=c1ncc(I)cn1[C@H]1C[C@H](O)[C@@H](CO)O1 [IPdR, 1-(2-Deoxy-β-D-Ribofuranosyl)-5-iodo-2-pyrimidinone]
DAYS--SURVIVAL: deaths (HSV-2 (333 strain); intraperitoneal): 1 died on day 17 | long term survivors (>30 days) (HSV-2 (333 strain); intraperitoneal): 4 | DAYS--SURVIVAL: deaths (HSV-2 (333 strain); subcutaneous, 100 mg/kg): 1 died on day 11 and 2 died on day 13 | long term survivors (>30 days) (HSV-2 (333 strain); subcutaneous): 2 | DAYS--SURVIVAL: days average (HSV-2 (333 strain); subcutaneous, control 9.4 days average): 12 days | antiviral activity, comparison of IPdR and FPdR (HSV-2 (strain 333) [1]): comparable in antiviral activity | inhibition at 100 µM (HSV-2 (strain 333) [1]; Human alphaherpesvirus 2, Vero, 100 μM, 48 hours): 51.1% | activity at 72 h, 100 µM ([2]; 100 μm, read-out: % Growth): 75% | activity at 72 h, 200 µM ([2]; 200 μm, read-out: % Growth): 80% | IC50 at 72 h ([2]; cytotoxicity, read-out: ID50): > 200 µM | toxicity against the host cells [3]: low level of toxicity for the host cell | Survivors/Total (HSV-2 (Strain 333) [4]; 10 mg/kg IP, 2 × 21/2): 0/5 | percent survival (HSV-2 (Strain 333) [4]; 10 mg/kg IP, 2 × 21/2): 0% | Mean Survival Time (days), of the mice that died (HSV-2 (Strain 333) [4]; 10 mg/kg IP, 2 × 21/2, control 9.3 ± 1.1): 12.8 ± 3.6 days | % ILS (HSV-2 (Strain 333) [4]; 10 mg/kg IP, 2 × 21/2): 133% | Survivors/Total (HSV-2 (Strain 333) [4]; 10 mg/kg oral, 2 × 21/2): 0/5 | percent survival (HSV-2 (Strain 333) [4]; 10 mg/kg oral, 2 × 21/2): 0% | Mean Survival Time (days), of the mice that died (HSV-2 (Strain 333) [4]; 10 mg/kg oral, 2 × 21/2, control 10.6 ± 2.1): 12.8 ± 3.6 days | % ILS (HSV-2 (Strain 333) [4]; 10 mg/kg oral, 2 × 21/2): 123% | Survivors/Total (HSV-2 (Strain 333) [4]; 40 mg/kg IP, 2 × 21/2): 2/5 | percent survival (HSV-2 (Strain 333) [4]; 40 mg/kg IP, 2 × 21/2): 40% | Mean Survival Time (days), of the mice that died (HSV-2 (Strain 333) [4]; 40 mg/kg IP, 2 × 21/2, control 9.3 ± 1.1): 10.0 ± 1.0 days | % ILS (HSV-2 (Strain 333) [4]; 40 mg/kg IP, 2 × 21/2): 108% | Survivors/Total (HSV-2 (Strain 333) [4]; 40 mg/kg oral, 2 × 21/2): 2/5 | percent survival (HSV-2 (Strain 333) [4]; 40 mg/kg oral, 2 × 21/2): 40% | Mean Survival Time (HSV-2 (Strain 333) [4]; 40 mg/kg oral, 2 × 21/2, control 10.6 ± 2.1): 10.0 ± 1.0 days | % ILS (HSV-2 (Strain 333) [4]; 40 mg/kg oral, 2 × 21/2): 94% | Survivors/Total (HSV-2 (Strain 333) [4]; 100 mg/kg IP, 1 × 5): 7/10 | percent survival (HSV-2 (Strain 333) [4]; 100 mg/kg IP, 1 × 5): 70% | Mean Survival Time (days), of the mice that died (HSV-2 (Strain 333) [4]; 100 mg/kg IP, 1 × 5, control 9.6 ± 1.1): 12.0 ± 4.4 days | % ILS (HSV-2 (Strain 333) [4]; 100 mg/kg IP, 1 × 5): 129% | Survivors/Total (HSV-2 (Strain 333) [4]; 100 mg/kg IP, 2 × 21/2): 6/10 | percent survival (HSV-2 (Strain 333) [4]; 100 mg/kg IP, 2 × 21/2): 60% | Mean Survival Time (days), of the mice that died (HSV-2 (Strain 333) [4]; 100 mg/kg IP, 2 × 21/2, control 9.3 ± 1.1): 12.5 ± 1.3 days | % ILS (HSV-2 (Strain 333) [4]; 100 mg/kg IP, 2 × 21/2): 135% | Survivors/Total (HSV-2 (Strain 333) [4]; 100 mg/kg SC, 1 × 5): 2/5 | percent survival (HSV-2 (Strain 333) [4]; 100 mg/kg SC, 1 × 5): 40% | Mean Survival Time (days), of the mice that died (HSV-2 (Strain 333) [4]; 100 mg/kg SC, 1 × 5, control 9.4 ± 1.1): 12.3 ± 1.2 days | % ILS (HSV-2 (Strain 333) [4]; 100 mg/kg SC, 1 × 5): 131% | Survivors/Total (HSV-2 (Strain 333) [4]; 100 mg/kg oral, 2 × 21/2): 20/20 | percent survival (HSV-2 (Strain 333) [4]; 100 mg/kg oral, 2 × 21/2): 100% | Survivors/Total (HSV-2 (Strain 333) [4]; [11]): 5/5 | percent survival (HSV-2 (Strain 333) [4]; [11]): 100% | Mean Survival Time (HSV-2 (Strain 333) [4]; 100 mg/kg oral, 2 × 21/2, control 9.8 ± 1.3): > 45 days | Mean Survival Time (HSV-2 (Strain 333) [4]; 100 mg/kg oral, 2 × 21/2, control 10.6 ± 2.1): > 45 days | Survivors/Total (HSV-2 (Strain 333) [4]; [12]): 4/5 | percent survival (HSV-2 (Strain 333) [4]; [12]): 80% | Mean Survival Time (days), of the mice that died (HSV-2 (Strain 333) [4]; 100 mg/kg oral, 2 × 21/2, innoculation dose 1 × 10^6 PFU, control 10.0 ± 1.2): 14.0 days | % ILS (HSV-2 (Strain 333) [4]; [12]): 140% | toxicity to the host (HSV-2 (Strain 333) [4]; oral, intraperitoneal or subcutaneous): without significant toxicity to the host | activity against HSV-2 in vivo / life span of the host (HSV-2 (Strain 333) [4]; summary of Table 5): active against HSV-2 in vivo; also recorded: can significantly increase | activity at 100 µM (HSV-1 (KOS)): 0.27% | activity at 100 µM (HSV-1 (CLl0l)): 1.6% | activity at 100 µM (HSV-2 (333)): 2.8% | activity at 100 µM ([5]; Human alphaherpesvirus 1, read-out: plaque-forming units as % of control): 22% | cross resistance of the more highly ACG-resistant strain ([5]; S1 compared with Tr7): more cross resistance | activity at 100 µM [6]: 2.6% | activity at 100 µM [7]: 14% | activity against PFA-resistant strains (PFA-resistant strains): retained full activity | activity at 100 µM (PFA-resistant strains; 100 μM, read-out: plaque-forming units as % of control): 0.1% | antiherpes / anti-viral activity (words) [8]: significant antiherpes activities; also recorded: showing the higher activity | antiherpes / anti-viral activity (words) ([8]; listed as 1-(2-Deoxy-β-D-ribofuranosyl)-5-(iodo)-2-pyrimidinone): high level of anti-viral activity | binding to the virus-specific thymadine kinase [9]: stronger binding to the virus-specific thymadine kinase | activity against acyclovir (ACG) and BVdU resistant strains [10]: somewhat reduced but still significant activity
